Where two headings read alike, the source gives them in different places.
Experiments:
[1] = molecular target: T1, HCV NS5B RdRp genotype 1b (Hepatitis C virus genotype 1b, UniProt Q9WMX2); experiment: Modified HCV NS5B RdRp enzyme assay (preincubation protocol); format: biochemical
T1 construct: The protein was expressed with an 18 amino acid C-terminal truncation to enhance the solubility; made in house; host or cells: E. coli BL21(DE3), pET21a vector
Method: HCV NS5B RdRp cloning, expression, and purification. The cDNA encoding the NS5B protein of HCV, genotype 1b, was cloned into the pET21a expression vector. The protein was expressed with an 18 amino acid C-terminal truncation to enhance the solubility. The E. coli competent cell line BL21(DE3) was used for expression of the protein. Cultures were grown at 37° C. for ˜4 hours until the cultures reached an optical density of 2.0 at 600 nm. The cultures were cooled to 20° C. and induced with 1 mM IPTG. Fresh ampicillin was added to a final concentration of 50 μg/ml and the cells were grown overnight at 20° C.
Cell pellets (3L) were lysed for purification to yield 15-24 mgs of purified NS5B. The lysis buffer consisted of 20 mM Tris-HCl, pH 7.4, 500 mM NaCl, 0.5% triton X-100, 1 mM DTT, 1 mM EDTA, 20% glycerol, 0.5 mg/ml lysozyme, 10 mM MgCl2, 15 ug/ml deoxyribonuclease I, and Complete TM protease inhibitor tablets (Roche). After addition of the lysis buffer, frozen cell pellets were resuspended using a tissue homogenizer. To reduce the viscosity of the sample, aliquots of the lysate were sonicated on ice using a microtip attached to a Branson sonicator. The sonicated lysate was centrifuged at 100,000×g for 1 hr at 4° C. and filtered through a 0.2 μm filter unit (Corning).
The protein was purified using three sequential chromatography steps: Heparin sepharose CL-6B, polyU sepharose 4B, and Hitrap SP sepharose (Pharmacia). The chromatography buffers were identical to the lysis buffer but contained no lysozyme, deoxyribonuclease I, MgCl2 or protease inhibitor and the NaCl concentration of the buffer was adjusted according to the requirements for charging the protein onto the column. Each column was eluted with a NaCl gradient which varied in length from 5-50 column volumes depending on the column type. After the final chromatography step, the resulting purity of the enzyme is >90% based on SDS-PAGE analysis. The enzyme was aliquoted and stored at −80° C.
Standard HCV NS5B RdRp enzyme assay. HCV RdRp genotype 1b assays were run in a final volume of 60 μl in 96 well plates (Costar 3912). The assay buffer is composed of 20 mM Hepes, pH 7.5, 2.5 mM KCl, 2.5 mM MgCl2, 1 mM DTT, 1.6 U RNAse inhibitor (Promega N2515), 0.1 mg/ml BSA (Promega R3961), and 2% glycerol. All compounds were serially diluted (3-fold) in DMSO and diluted further in water such that the final concentration of DMSO in the assay was 2%. HCV RdRp genotype 1b enzyme was used at a final concentration of 28 nM. A polyA template was used at 6 nM, and a biotinylated oligo-dT12 primer was used at 180 nM final concentration. Template was obtained commercially (Amersham 27-4110). Biotinylated primer was prepared by Sigma Genosys. 3H-UTP was used at 0.6 μCi (0.29 μM total UTP). Reactions were initiated by the addition of enzyme, incubated at 30° C. for 60 min, and stopped by adding 25 μl of 50 mM EDTA containing SPA beads (4 μg/μl, Amersham RPNQ 0007). Plates were read on a Packard Top Count NXT after >1 hr incubation at room temperature.
Modified HCV NS5B RdRp enzyme assay. A modified enzyme assay was performed essentially as described for the standard enzyme assay except for the following: The biotinylated oligo dT12 primer was precaptured on streptavidin-coated SPA beads by mixing primer and beads in assay buffer and incubating at room temperature for one hour. Unbound primer was removed after centrifugation. The primer-bound beads were resuspended in 20 mM Hepes buffer, pH 7.5 and used in the assay at final concentrations of 20 nM primer and 0.67 μg/μl beads. Order of addition in the assay: enzyme (14 nM) was added to diluted compound followed by the addition of a mixture of template (0.2 nM), 3H-UTP (0.6 μCi, 0.29 μM), and primer-bound beads, to initiate the reaction; concentrations given are final. Reactions were allowed to proceed for 4 hours at 30° C.
IC50 values for compounds were determined using seven different [I]. […]

[2] = tested on: HCV replicon cells; experiment: HCV replicon FRET assay; format: cell-based; conditions: Hepatitis C virus
From the text: FRET Assay Preparation. To perform the HCV FRET screening assay, 96-well cell culture plates were used. The FRET peptide (Anaspec, Inc.) (Taliani et al., Anal. Biochem. 1996, 240, 60-67) contains a fluorescence donor, EDANS, near one end of the peptide and an acceptor, DABCYL, near the other end. The fluorescence of the peptide is quenched by […] resonance energy transfer (RET) between the donor and the acceptor, but as the NS3 protease cleaves the peptide the products are released from RET quenching and the fluorescence of the donor becomes apparent. The assay reagent was made as follows: 5× cell Luciferase cell culture lysis reagent from Promega (#E153A) diluted to 1× with dH2O, NaCl added to 150 mM final, the FRET peptide diluted to 20 μM final from a 2 mM stock.
To prepare plates, HCV replicon cells, with or without a Renilla luciferase reporter gene, were trypsinized and placed into each well of a 96-well plate with titrated test compounds added in columns 3 through 12; columns 1 and 2 contained a control compound (HCV protease inhibitor), and the bottom row contained cells without compound. The plates were then placed in a CO2 incubator at 37° C.
Assays. Subsequent to addition of the test compounds described above (FRET Assay Preparation), at various times the plate was removed and Alamar blue solution (Trek Diagnostics, #00-100) was added per well as a measure of cellular toxicity. After reading in a Cytoflour 4000 instrument (PE Biosystems), plates were rinsed with PBS and then used for FRET assay by the addition of 30 ul of the FRET peptide assay reagent described above (FRET Assay Preparation) per well. The plate was then placed into the Cytoflour 4000 instrument which had been set to 340 excite/490 emission, automatic mode for 20 cycles and the plate read in a kinetic mode. Typically, the signal to noise using an endpoint analysis after the reads was at least three-fold. Alternatively, after Alamar blue reading, plates were rinsed with PBS, 50 ul of DMEM (high glucose) without phenol red was added and plates were then used for luciferase assay using the Promega Dual-Glo Luciferase Assay System.
Compound analysis was determined by quantification of the relative HCV replicon inhibition and the relative cytotoxicity values. To calculate cytoxicity values, the average Alamar Blue fluorescence signals from the control wells were set as 100% non-toxic. The individual signals in each of the compound test wells were then divided by the average control signal and multiplied by 100% to determine […]. To calculate the HCV replicon inhibition values, an average background value was obtained from the two wells containing the highest amount of HCV protease inhibitor at the end of the assay period. These numbers were similar to those obtained from naive Huh-7 cells.
The background numbers were then subtracted from the average signal obtained from the control wells and this number was used as 100% activity. The individual signals in each of the compound test wells were then divided by the averaged control values after background subtraction and multiplied by 100% to determine percent activity. EC50 values for a protease inhibitor titration were calculated as the concentration which caused a 50% reduction in FRET or luciferase activity. The two numbers generated for the compound plate, percent cytoxicity and percent activity were used to determine compounds of interest for further analysis.

[3] = HCV NS5B RdRp genotype 1b, preincubation protocol, read-out: IC50
[4] = HCV replicon cells, FRET assay, read-out: EC50

T1 sequence (Q9WMX2 2420-2992): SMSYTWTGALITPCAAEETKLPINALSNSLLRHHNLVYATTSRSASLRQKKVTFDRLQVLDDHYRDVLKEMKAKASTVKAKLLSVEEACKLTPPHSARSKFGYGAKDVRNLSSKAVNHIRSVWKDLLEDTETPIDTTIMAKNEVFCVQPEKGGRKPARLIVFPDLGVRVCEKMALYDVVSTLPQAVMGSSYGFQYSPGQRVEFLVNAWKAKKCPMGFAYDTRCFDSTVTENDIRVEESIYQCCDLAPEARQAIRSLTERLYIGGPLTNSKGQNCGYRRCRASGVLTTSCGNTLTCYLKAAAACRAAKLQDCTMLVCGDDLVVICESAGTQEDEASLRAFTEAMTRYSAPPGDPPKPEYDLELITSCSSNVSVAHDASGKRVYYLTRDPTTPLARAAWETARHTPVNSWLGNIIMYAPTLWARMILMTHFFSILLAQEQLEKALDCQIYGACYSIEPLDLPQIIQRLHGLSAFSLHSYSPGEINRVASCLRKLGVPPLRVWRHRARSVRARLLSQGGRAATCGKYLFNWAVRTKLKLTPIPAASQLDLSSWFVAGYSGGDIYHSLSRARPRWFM

| SMILES | IC50 [1, 3] [nM] | EC50 [2, 4] [nM] | IC50 [1] [nM] | EC50 [2] [nM] |
| --- | --- | --- | --- | --- |
| COc1ccc2c(c1)C=C(C(=O)N1C[C@@H](C)O[C@@H](C)C1)Cn1c-2c(C2CCCCC2)c2ccc(C(=O)NS(=O)(=O)N(C)C)nc21 | 1 to 500 | > 500 |  |  |
| COc1ccc2c(c1)C=C(C(=O)N1C[C@@H](C)N(C)[C@@H](C)C1)Cn1c-2c(C2CCCCC2)c2ccc(C(=O)NS(=O)(=O)N(C)C)nc21 | 1 to 500 | 1 to 500 |  |  |
| COc1ccc2c(c1)[C@@H]1C[C@]1(C(=O)N1[C@@H]3CC[C@H]1CN(C)C3)Cn1c-2c(C2CCCCC2)c2ccc(C(=O)NS(=O)(=O)N(C)C)nc21 |  |  | 1 to 500 | > 100 |
| COc1ccc2c(c1)C=C(C(=O)N1C[C@@H](C)O[C@@H](C)C1)Cn1c-2c(C2CCCCC2)c2cccnc21 | 500 to 10000 | > 370 |  |  |
| COC(=O)C1=Cc2cc(OC)ccc2-c2c(C3CCCCC3)c3ccc(C(=O)NS(=O)(=O)N(C)C)nc3n2C1 | 1 to 500 | 500 to 10000 |  |  |
| CNS(=O)(=O)NC(=O)c1ccc2c(C3CCCCC3)c3n(c2n1)CC(C(=O)N1C[C@@H](C)O[C@@H](C)C1)=Cc1cc(OC)ccc1-3 | 1 to 500 | 500 to 10000 |  |  |
| COc1ccc2c(c1)[C@@H]1C[C@]1(C(=O)N1[C@@H]3CC[C@H]1CN(C)C3)Cn1c-2c(C2CCCCC2)c2ccc(C(=O)N(C)S(=O)(=O)N(C)C)nc21 |  |  | 500 to 10000 | > 100 |

From patent US7517872B2, “Compounds for the treatment of hepatitis C” (Bristol-Myers Squibb Company, priority 2007, dated 2009)
